Data taken from the supplement of paper PMC5908809.

Assays:
[1] = test system: normal NK cells expanded with K562-aAPC; assay: percent inhibition of viability; higher = more inhibition; details: 72 h, IL-2 2.5 ng/mL
Protocol: (§1)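 Drug sensitivity and resistance testing on K562-aAPC-expanded normal NK cells: 5 concentrations (10-fold steps over a 10,000-fold range), 72 h at 37 °C, viability by CellTiter-Glo normalised to DMSO and benzethonium chloride controls; DSS from the fitted curve.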

[2] = test system: IMC-1 (IL-2 20 ng/mL); assay: as above; details: 72 h
[3] = test system: normal primary NK cells, pool 2 (3 donors) (IL-2 2.5 ng/mL); assay: as above; details: 72 h
[4] = test system: normal primary NK cells, pool 3 (3 donors) (IL-2 2.5 ng/mL); assay: as above; details: 72 h
[5] = test system: normal NK cells expanded with K562-aAPC; assay: drug sensitivity score (DSS) (DSS units); higher = more sensitive; extreme values may be limits of the assay; details: 72 h; IL-2 2.5 ng/mL
Protocol: as §1

[6] = test system: IMC-1 (IL-2 20 ng/mL); assay: as above; details: 72 h
[7] = test system: normal primary NK cells, pool 2 (3 donors) (IL-2 2.5 ng/mL); assay: as above; details: 72 h
[8] = test system: normal primary NK cells, pool 3 (3 donors) (IL-2 2.5 ng/mL); assay: as above; details: 72 h
[9] = test system: DERL-7 (IL-2 2.5 ng/mL); assay: percent inhibition of viability; higher = more inhibition; details: 72 h
[10] = test system: KAI3 (IL-2 2.5 ng/mL); assay: as above; details: 72 h
[11] = test system: KHYG-1 (IL-2 2.5 ng/mL); assay: as above; details: 72 h
[12] = test system: NK-92 (IL-2 2.5 ng/mL); assay: as above; details: 72 h
[13] = test system: NK-YS (IL-2 2.5 ng/mL); assay: as above; details: 72 h
[14] = test system: NKL (IL-2 2.5 ng/mL); assay: as above; details: 72 h
[15] = test system: SNK-6 (IL-2 2.5 ng/mL); assay: as above; details: 72 h
[16] = test system: YT (IL-2 2.5 ng/mL); assay: as above; details: 72 h
[17] = test system: normal primary NK cells, pool 1 (3 donors) (IL-2 2.5 ng/mL); assay: as above; details: 72 h
[18] = test system: normal primary NK cells, pool 1 (3 donors), resting (IL-2 0 ng/mL); assay: as above; details: 72 h
[19] = test system: DERL-7 (IL-2 2.5 ng/mL); assay: drug sensitivity score (DSS) (DSS units); higher = more sensitive; extreme values may be limits of the assay; details: 72 h
[20] = test system: KAI3 (IL-2 2.5 ng/mL); assay: as above; details: 72 h
[21] = test system: KHYG-1 (IL-2 2.5 ng/mL); assay: as above; details: 72 h
[22] = test system: NK-92 (IL-2 2.5 ng/mL); assay: as above; details: 72 h
[23] = test system: NK-YS (IL-2 2.5 ng/mL); assay: as above; details: 72 h
[24] = test system: NKL (IL-2 2.5 ng/mL); assay: as above; details: 72 h
[25] = test system: SNK-6 (IL-2 2.5 ng/mL); assay: as above; details: 72 h
[26] = test system: YT (IL-2 2.5 ng/mL); assay: as above; details: 72 h
[27] = test system: normal primary NK cells, pool 1 (3 donors) (IL-2 2.5 ng/mL); assay: as above; details: 72 h
[28] = test system: normal primary NK cells, pool 1 (3 donors), resting (IL-2 0 ng/mL); assay: as above; details: 72 h

N[C@@H](Cc1ccc(N(CCCl)CCCl)cc1)C(=O)O [Melphalan] (max concentration tested 12500 nM)
percent inhibition of viability [%]
Details	1.25 nM	12.5 nM	125 nM	1250 nM	12500 nM
[1]	-1.69	-2.91	-0.58	0.8	6.31
[2]	-3.81	-2.31	-1.39	0.63	0.47
[3]	-5.43	-5.03	-6.41	7.99	1.1
[4]	-7.72	-2.35	-4.09	0.34	3.45

Details	drug sensitivity score
[5]	0
[6]	0
[7]	0
[8]	0

COc1cc(Nc2ncc(F)c(Nc3ccc4c(n3)N(COP(=O)(O)O)C(=O)C(C)(C)O4)n2)cc(OC)c1OC [Fostamatinib] (max concentration tested 2500 nM)
percent inhibition of viability [%]
Details	0.25 nM	2.5 nM	25 nM	250 nM	2500 nM
[1]	-1.89	-6.48	-4.68	-0.77	45.3
[2]	-2.94	-0.51	-4.59	-3.53	-9.62
[3]	-8.88	-12.4	-4.65	-3.71	24.9
[4]	-14	-12.5	-10.8	-5.58	4.31

Details	drug sensitivity score
[5]	2.26
[6]	0.89
[7]	0.74
[8]	0

CC(C)NC[C@@H](C(=O)N1CCN(c2ncnc3c2[C@H](C)C[C@H]3O)CC1)c1ccc(Cl)cc1 [GDC-0068] (max concentration tested 10000 nM)
percent inhibition of viability [%]
Details	[9]	[10]	[11]	[12]	[13]	[14]	[15]	[16]	[17]	[18]
1 nM	-2.5	12.9	7.35	1.45	7.4	2.85	-1.73	10.5	5.46	10.8
10 nM	3.47	16.7	8.11	-2.57	4.06	7.83	-7.94	10.4	-2.99	1.35
100 nM	-3.9	21.2	10.8	7.49	8.96	4.25	17.9	9.38	2.75	6.46
1000 nM	40.2	10.2	8.62	1.85	7.83	3.13	-5.92	5.43	4.21	4.26
10000 nM	83.9	27.1	22.8	29	20.6	17.5	24.9	17.3	24.8	45.6

Details	drug sensitivity score
[19]	9.75
[20]	0
[21]	1.8
[22]	1.5
[23]	1.05
[24]	0.78
[25]	0.68
[26]	0
[27]	1.57
[28]	3.04
